Data taken from patent publication US20240043379A1, “PRODRUGS OF CYTOTOXIC ACTIVE AGENTS HAVING ENZYMATICALLY CLEAVABLE GROUPS” (Bayer Pharma Aktiengesellschaft, priority 2016, published 2024).

How the values were obtained:
[1] = Caco-2 flux assay for cell permeability; format: in vitro ADME; details: human; for Papp B→A at 2 h: Caco-2, 2 hours incubation; for efflux ratio at 2 h: ratio of Papp (B-A) to Papp (A-B), Caco-2
[2] = system: NCI-H292: human mucoepidermoid lung carcinoma cells; assay: MTT assay, cytotoxic effect on NCI-H292; format: cell-based; details: Table 2, metabolites and small-molecule reference examples
Protocol: (§1) The analysis of the cytotoxic effects of the ADCs was carried out with various cell lines:
(§2) The cells were cultivated by the standard method as stated by the American Tissue Culture Collection (ATCC) or the Leibniz-Institut DSMZ-Deutsche Sammlung von Mikroorganismen und Zellkulturen GmbH (DSMZ) for the cell lines in question.
(§3) The cells were then incubated in an incubator at 37° C., and 5% carbon dioxide. […] To this end, the MTT reagent was incubated with the cells for 4 h, followed by lysis of the cells overnight by addition of the detergent. […] The measured data were used to calculate the IC50 of the growth inhibition using the DRC (dose response curve). The proliferation of cells which were not treated with test substance but were otherwise identically treated was defined as the 100% figure.

[3] = system: SK-HEP-1: human liver cell cancer line; assay: MTT assay, cytotoxic effect on SK-HEP-1; format: cell-based; details: Table 2, metabolites and small-molecule reference examples
Protocol: as §1, §2, §3

[4] = system: KPL4: human breast cancer cell line; assay: MTT assay, cytotoxic effect on KPL4; format: cell-based; details: Table 2, metabolites and small-molecule reference examples
Protocol: as §1, §2, §3

Caco-2 cells = assay: Caco-2 flux assay for cell permeability; format: in vitro ADME; details: Caco-2, 2 hours incubation

Structure (SMILES) | Papp B→A at 2 h [1] | efflux ratio at 2 h [1] | IC50 [2] | IC50 [3] | Papp (B-A) (Caco-2 cells) | further results
CC(C)(C)[C@H](c1cc(-c2cc(F)ccc2F)cn1Cc1ccccc1)N(CC[C@H](N)C(=O)NCCNC(=O)CCCC(=O)NCCCC[C@H](N)C(=O)O)C(=O)CO.O=C(O)C(F)(F)F [Example M29, N^6-(5-{[2-({(2S)-2-Amino-4-[{(1R)-1-[1-benzyl-4-(2,5-difluorophenyl)-1H-pyrrol-2-yl]-2,2-dimethylpropyl}(glycoloyl)amino]butanoyl}amino)ethyl]amino}-5-oxopentanoyl)-L-lysine/trifluoroacetic acid (1:1)] | 0.41 ×10⁻⁶ cm/s | 5.3 | – | – | – | –
CC(C)(C)[C@H](c1cc(-c2cc(F)ccc2F)cn1Cc1ccccc1)N(CC[C@H](N)C(=O)NCCNC(=O)CNC(=O)C(CC(=O)O)SC[C@H](N)C(=O)O)C(=O)CO (single isomer, unassigned) [Example M16] | – | – | 143 nM | 44 nM | – | IC50 [4]: 195 nM
CC(C)(C)[C@H](c1cc(-c2cc(F)ccc2F)cn1Cc1ccccc1)N(CCCN)C(=O)CSC[C@H](NC(=O)CCOCCOCCOCCOCCNC(=O)CNC(=O)CC(SC[C@H](N)C(=O)O)C(=O)O)C(=O)O.O=C(O)C(F)(F)F.O=C(O)C(F)(F)F (stereo partly drawn) [Example M20, (1R,4R,27R,33R)-1-Amino-32-(3-aminopropyl)-33-[1-benzyl-4-(2,5-difluorophenyl)-1H-pyrrol-2-yl]-34,34-dimethyl-6,9,25,31-tetraoxo-13,16,19,22-tetraoxa-3,29-dithia-7,10,26,32-tetraazapentatriacontane-1,4,27-tricarboxylic acid/trifluoroacetic acid (1:2)] | 0.09 ×10⁻⁶ cm/s | – | – | – | – | –
CC(C)(C)[C@H](c1cc(-c2cc(F)ccc2F)cn1Cc1ccccc1)N(CC[C@H](N)C(=O)N[C@H](CCC(=O)O)C(=O)O)C(=O)CO.O=C(O)C(F)(F)F [Example M25, N-{(2S)-2-Amino-4-[{(1R)-1-[1-benzyl-4-(2,5-difluorophenyl)-1H-pyrrol-2-yl]-2,2-dimethylpropyl}(glycoloyl)amino]butanoyl}-L-glutamic acid/trifluoroacetic acid (1:1)] | – | – | – | – | 0.81 ×10⁻⁶ cm/s | IC50 ([2]; Homo sapiens, NCI-H292): 500 nM; IC50 ([3]; Homo sapiens, SK-HEP1): 500 nM; IC50 ([4]; Homo sapiens, KPL4): 500 nM
CC(C)(C)[C@H](c1cc(-c2cc(F)ccc2F)cn1Cc1ccccc1)N(CC[C@H](N)C(=O)NCCNC(=O)CNC(=O)CCCC(=O)NCCCC[C@H](N)C(=O)O)C(=O)CO.O=C(O)C(F)(F)F [Example M28, N^6-{(3R,7S)-7-Amino-3-[1-benzyl-4-(2,5-difluorophenyl)-1H-pyrrol-2-yl]-4-glycoloyl-2,2-dimethyl-8,13,16,20-tetraoxo-4,9,12,15-tetraazaicosan-20-yl}-L-lysine/trifluoroacetic acid (1:1)] | 0.19 ×10⁻⁶ cm/s | 1 | – | – | – | –
CC(C)(C)[C@H](c1cc(-c2cc(F)ccc2F)cn1Cc1ccccc1)N(CC[C@H](N)C(=O)NCCNC(=O)CNC(=O)CC(SC[C@H](N)C(=O)O)C(=O)O)C(=O)CO.O=C(O)C(F)(F)F (stereo partly drawn) [Example M26, 4-[(2-{[2-({(2S)-2-Amino-4-[{(1R)-1-[1-benzyl-4-(2,5-difluorophenyl)-1H-pyrrol-2-yl]-2,2-dimethylpropyl}(glycoloyl)amino]butanoyl}amino)ethyl]amino}-2-oxoethyl)amino]-2-{[(2R)-2-amino-2-carboxyethyl]sulphanyl}-4-oxobutanoic acid/trifluoroacetic acid (1:1)] | – | – | 63.8 nM | 19 nM | 1.3 ×10⁻⁶ cm/s | –
